The text below walks through data of patent publication US20150209403A1, “Dose Adjustment” (AbbVie Inc., priority 2014, published 2015).

Data set [1] in a line: DDI studies of 3D regimen with HIV-1 protease inhibitors (ATV, DRV, LPV/r). The note with it: for tolerability: co-administration with 3D regimen; for Total bilirubin elevation Grade 3, subjects: 3D regimen DDI study; for Cmax, AUC and Ctrough, % change: HIV PI co-administered with 3D regimen.
Data set [2] can be described thus: Drug interaction study of 3D or 2D regimen with omeprazole. To be noted: human, in vivo, 40 mg. The protocol:
In 24 healthy volunteers omeprazole (40 mg) were administered on day 1 and days 20-24. The 3D or 2D regimen (Compound 1/r 150/100 mg QD+ombitasvir 25 mg QD±dasabuvir 250 mg BID) was administered on days 6-24. Intensive PK sampling was performed for study drugs when dosed alone and during coadministration and parameters estimated by noncompartmental analyses. Safety was evaluated through assessment of adverse events, vital signs, ECG and clinical laboratory tests.

Data set [3] is described as follows: Drug interaction study of 3D or 2D with ketoconazole (KTZ). The data set is classed as in vivo, human. As for the experimental part:
Single doses of Compound 1/r/ombitasvir 150/100/25 mg+/−dasabuvir 250 mg were administered alone and in the presence of steady state KTZ 400 mg QD in 24 healthy volunteers. Drug concentrations were determined from intensive blood samples and PK parameters were estimated by noncompartmental analyses. Safety assessment (adverse events, clinical labs, vital signs, ECG) was done throughout the study.

Data set [4] can be described thus: DDI studies of 3D regimen with HIV-1 N(t)RTIs, NNRTIs and INSTI. The data set is classed as in vivo, human. To be noted: for exposures (Cmax and AUCτ), % change: both; for exposures (Cmax and AUCτ), % change / exposures (Cmax and AUCτ), effect: human, in vivo.
The conditions of data set [5]: RPV 75 mg QD; cited from earlier work.
The conditions of data set [6]: human, in vivo. The text has this:
Safety was monitored throughout the study.

Data set [7] in a line: Drug interaction study of pravastatin and rosuvastatin with 3D or 2D. The data set is classed as in vivo, human. The protocol: After a washout, multiple doses of pravastatin (10 mg QD, N=12) and rosuvastatin (5 mg QD, N=12) were administered with and without 3D or 2D to steady state in Period 2. […] Intensive PK sampling was performed in both periods and PK parameters estimated by noncompartmental analyses. Safety was evaluated through assessment of adverse events, vital signs, ECG and clinical laboratory tests.

The nature of data set [8]: Drug interaction study of 3D regimen with carbamazepine (CBZ). The class given is in vivo, human. As for the experimental part: Single doses of the 3D regimen (Compound 1/r/ombitasvir 150/100/25 mg+dasabuvir 250 mg) were administered alone and in the presence of steady state CBZ 200 mg BID in 12 healthy subjects. Drug concentrations were determined from blood samples collected on multiple study days and PK parameters were estimated by noncompartmental analyses. Safety was assessed (adverse events, vital signs, ECG, etc.) throughout the study.

Data set [9] in a line: Drug interaction study of 3D or 2D regimen with digoxin. To be noted: healthy volunteers. The data set is classed as in vivo, human. As for the experimental part:
Single doses of digoxin (0.5 mg) were administered alone and in presence of steady state Compound 1/r 150/100 mg QD+ombitasvir 25 mg QD+/−dasabuvir […] BID in 24 healthy volunteers. Drug concentrations were
determined from intensive blood samples collected on multiple study days and PK parameters were estimated by noncompartmental analyses. Safety was assessed (adverse events, vital signs, ECG, etc.) throughout the study.

Where [10] appears, read: single dose 3D or 2D with steady state KTZ 400 mg QD.
The mark [11] stands for this setting: LPV/r 800/200 mg QPM with 3D regimen.

For `CC(C)CN(C[C@@H](O)[C@H](Cc1ccccc1)NC(=O)O[C@H]1CO[C@H]2OCC[C@H]21)S(=O)(=O)c1ccc(N)cc1` [DRV, Darunavir], the tolerability result in data set [1] is listed as “generally well tolerated”.
As for `COC(=O)N[C@H](C(=O)N[C@@H](Cc1ccccc1)[C@@H](O)CN(Cc1ccc(-c2ccccn2)cc1)NC(=O)[C@@H](NC(=O)OC)C(C)(C)C)C(C)(C)C` [ATV, Atazanavir], the “Total bilirubin elevation Grade 3, subjects” value in data set [1] (ATV QD arm) is listed as 10/24. Besides, the “Total bilirubin elevation Grade 3, subjects” value in data set [1] (ATV QPM arm) is given as 16/24. For the same compound, in data set [1] (ATV+RTV QPM with 3D regimen), the “Ctrough, % higher” value is given as 68%. In addition, in data set [1], the “Cmax, AUC and Ctrough, % change” value was not below 20%; the tolerability entry is recorded as “generally well tolerated”.
As to `COc1c(-c2ccc3cc(NS(C)(=O)=O)ccc3c2)cc(-n2ccc(=O)[nH]c2=O)cc1C(C)(C)C` [Compound 2, N-(6-(3-tert-butyl-5-(2,4-dioxo-3,4-dihydropyrimidin-1(2H)-yl)-2-methoxyphenyl)naphthalen-2-yl)methanesulfonamide], the “Cmax, AUC or Ctrough, % change” value in [2] is given as less than 20%. The “Exposures increased by” value in [3] (setting [10]) is “up to 42%”. For the same compound, in [4], the “exposures (Cmax and AUCτ), % change” value is “up to ±18%”; the “exposures (Cmax and AUCτ), effect” value is recorded as “not affected”.
As for `Cc1cc(/C=C/C#N)cc(C)c1Nc1ccnc(Nc2ccc(C#N)cc2)n1` [RPV, Rilpivirine], in data set [5], the “Cmax, fold higher than Cmax with RPV 25 mg QD” value is recorded as “approximately 2.6 fold” and the QTcF increase is 10.7 ms.
As for `Cc1nnc(C(=O)NC(C)(C)c2nc(C(=O)NCc3ccc(F)cc3)c(O)c(=O)n2C)o1` [RAL, Raltegravir], the “treatment discontinuations / premature discontinuation due to AE” value in [4] (co-administration of 3D regimen with HIV-1 ARV) was “no treatment discontinuations”. Besides, in [4] (co-administration with 3D regimen), the tolerability entry is given as “generally well tolerated”.
Consider `C=CC[C@@H]1/C=C(\C)C[C@H](C)C[C@H](OC)[C@H]2O[C@@](O)(C(=O)C(=O)N3CCCC[C@H]3C(=O)O[C@H](/C(C)=C/[C@@H]3CC[C@@H](O)[C@H](OC)C3)[C@H](C)[C@@H](O)CC1=O)[C@H](C)C[C@@H]2OC` [tacrolimus], for which, in data set [6], the “tacrolimus DN_AUCinf, fold of tacrolimus exposure when administered alone” value is on record as 57-86 fold and the “tacrolimus DN_Cmax, fold of tacrolimus exposure when administered alone” value is 3.7-4.3 fold. In addition, the “tacrolimus DN_C24, fold of tacrolimus exposure when administered alone” value in data set [6] (24 h) is reported as 17-25 fold.
As for `CC(C)c1nc(CN(C)C(=O)N[C@H](C(=O)N[C@@H](Cc2ccccc2)C[C@H](O)[C@H](Cc2ccccc2)NC(=O)OCc2cncs2)C(C)C)cs1` [ritonavir], the “Exposures increased by” value in data set [3] (setting [10]) is on record as 27-57%. Also, in data set [4], the “exposures (Cmax and AUCτ), % change” value was “±17%”; the “exposures (Cmax and AUCτ), effect” value is recorded as “not affected”.
In the case of `COC(=O)N[C@H](C(=O)N1CCC[C@H]1C(=O)Nc1ccc([C@@H]2CC[C@@H](c3ccc(NC(=O)[C@@H]4CCCN4C(=O)[C@@H](NC(=O)OC)C(C)C)cc3)N2c2ccc(C(C)(C)C)cc2)cc1)C(C)C` [Compound 3], the “Exposures increased by” value in data set [3] (setting [10]) is listed as “up to 26%”. Moreover, in [4], the “exposures (Cmax and AUCτ), % change” value is given as “up to ±11%”; the “exposures (Cmax and AUCτ), effect” value is listed as “not affected”.
Turning to `CC[C@H](C)C(=O)O[C@H]1C[C@H](O)C=C2C=C[C@H](C)[C@H](CC[C@@H](O)C[C@@H](O)CC(=O)O)[C@H]21` [Pravastatin], in [7] (statin with 3D or 2D), the “AUC, % higher” value is approximately 80% and the “Cmax, % higher” value is listed as “about 40%”.
Turning to `Cc1cnc(C(=O)N[C@H]2CCCCC/C=C\[C@@H]3C[C@@]3(C(=O)NS(=O)(=O)C3CC3)NC(=O)[C@@H]3C[C@@H](Oc4nc5ccccc5c5ccccc45)CN3C2=O)cn1` [Compound 1, (2R,6S,13aS,14aR,16aS,Z)—N-(cyclopropylsulfonyl)-6-(5-methylpyrazine-2-carboxamido)-5,16-dioxo-2-(phenanthridin-6-yloxy)-1,2,3,5,6,7,8,9,10,11,13a,14,14a,15,16,16a-hexadecahydrocyclopropa[e]pyrrolo[1,2-a][1,4]diazacyclopentadecine-14a-carboxamide], the “Cmax, AUC or Ctrough, % change” value in data set [2] is less than 20%. Moreover, in data set [3] (setting [10]), the “AUCinf increased by” value is 98-116%. The “Cmax increased by” value in [3] (single dose 3D or 2D with steady state KTZ 400 mg QD, healthy volunteers) is 37-72%. Further, in data set [1] (3D regimen with LPV/r QPM or BID), the “exposures (Cmax and AUCτ), % higher” value is reported as not above 117%. Further, in data set [4], the “exposures (Cmax and AUCτ), % change” value is on record as “up to ±32%”; the “exposures (Cmax and AUCτ), effect” value is “not affected”.
As to `NC(=O)N1c2ccccc2C=Cc2ccccc21` [CBZ, Carbamazepine], the “Increases in ALT and AST, peak” value in [8] (3D coadministered with CBZ) was “Grade 3 in 1 subject”. In addition, in [8] (CBZ with 3D), the “exposures, % increase” value is reported as not above 17%. Moreover, the tolerability result in [8] (coadministration of 3D with CBZ) is “generally tolerated”.
For the compound `Cc1cccc(C)c1OCC(=O)N[C@@H](Cc1ccccc1)[C@@H](O)C[C@H](Cc1ccccc1)NC(=O)[C@H](C(C)C)N1CCCNC1=O` [LPV, Lopinavir], the “Cmax, AUC and Ctrough, % change” value in data set [1] was not above 15%. Moreover, in data set [1] (setting [11]), the “Ctrough versus values observed with LPV/r 400/100 mg BID administered alone” value is on record as “comparable” and the “Ctrough, % higher” value is listed as 218%.
Take `C[C@H]1O[C@@H](O[C@H]2[C@@H](O)C[C@H](O[C@H]3[C@@H](O)C[C@H](O[C@H]4CC[C@@]5(C)[C@H](CC[C@@H]6[C@@H]5C[C@@H](O)[C@]5(C)[C@@H](C7=CC(=O)OC7)CC[C@]65O)C4)O[C@@H]3C)O[C@@H]2C)C[C@H](O)[C@@H]1O` [digoxin]: the “exposures (Cmax and AUCinf) increased by” value in data set [9] (digoxin 0.5 mg single dose with 2D) was 24-58%; in data set [9] (digoxin 0.5 mg single dose with 2D, listed as Digoxin), not above 58%; in [9] (digoxin 0.5 mg single dose with 3D) it was 15-16%; in data set [9] (digoxin 0.5 mg single dose with 3D, listed as Digoxin), not above 16%.
`CC(=O)N1CCN(c2ccc(OCC3COC(Cn4ccnc4)(c4ccc(Cl)cc4Cl)O3)cc2)CC1` (centres unmarked) [KTZ, Ketoconazole]: in [3] (in vivo), the “AUC24 increased by” value is reported as 105-117% and the “Cmax, % change” value was less than 20%.
`CC(C)c1nc(N(C)S(C)(=O)=O)nc(-c2ccc(F)cc2)c1/C=C/[C@@H](O)C[C@@H](O)CC(=O)O` [Rosuvastatin]: in [7] (statin with 2D), the “AUC, % higher” value is recorded as 32% and the “Cmax, % higher” value is given as 161%. In addition, in data set [7] (statin with 3D), the “AUC, % higher” value stood at 159% and the “Cmax, % higher” value is 613%.
